Results taken from US20180000085A1, “USE OF PICOLINAMIDE COMPOUNDS WITH FUNGICIDAL ACTIVITY” (DOW AGROSCIENCES LLC, priority 2014, published 2018).

Key:
Zymoseptoria tritici = assay: Leaf blotch of wheat (SEPTTR) disease control on wheat seedlings; assay type: in vivo; set-up: key to SEPTTR 1DP, HV activity at 100 ppm (% control rating) / SEPTTR 3DC, HV activity at 100 ppm (% control rating) / SEPTTR disease control, 1DP / SEPTTR disease control, 3DC / SEPTTR 1DP disease control rating, HV activity / SEPTTR 3DC disease control rating, HV activity / SEPTTR 3DC, LV activity at 125.1 g/H (% Control rating) / SEPTTR 1DP, LV activity at 125.1 g/H (% Control rating) / SEPTTR 1DP disease control rating, LV activity at 125.1 g/H / SEPTTR 3DC disease control rating, LV activity at 125.1 g/H / SEPTTR 3DC disease control rating, HV activity at 100 ppm / SEPTTR 1DP disease control rating, HV activity at 100 ppm / HV activity at 100 ppm SEPTTR 3DC (disease control rating) / HV activity at 100 ppm SEPTTR 1DP (disease control rating) / LV activity at 125.1 g/H SEPTTR 1DP (disease control rating) / LV activity at 125.1 g/H SEPTTR 3DC (disease control rating): A: > 80; B: ≤ 80; C: Not Tested; D: No Activity Observed in the Reported Assay; details: for SEPTTR 1DP disease control rating, HV activity at 100 ppm / SEPTTR 3DC disease control rating, HV activity at 100 ppm: high volume application; for SEPTTR 1DP disease control rating, HV activity at 100 ppm / SEPTTR 1DP disease control rating, LV activity at 125.1 g/H: 1 day protectant; for SEPTTR 3DC disease control rating, HV activity at 100 ppm / SEPTTR 3DC disease control rating, LV activity at 125.1 g/H: 3 day curative; for SEPTTR 1DP disease control rating, LV activity at 125.1 g/H / SEPTTR 3DC disease control rating, LV activity at 125.1 g/H: low volume application
Puccinia triticina = assay: Wheat brown rust (PUCCRT) disease control on wheat seedlings; assay type: in vivo; set-up: key to PUCCRT 3DC, HV activity at 100 ppm (% control rating) / PUCCRT disease control, 3DC / PUCCRT 1DP disease control rating, HV activity / PUCCRT 3DC disease control rating, HV activity / PUCCRT 3DC, LV activity at 125.1 g/H (% Control rating) / PUCCRT 1DP, LV activity at 125.1 g/H (% Control rating) / PUCCRT 3DC disease control rating, LV activity at 125.1 g/H / PUCCRT 1DP disease control rating, LV activity at 125.1 g/H / PUCCRT 3DC disease control rating, HV activity at 100 ppm / PUCCRT 1DP disease control rating, HV activity at 100 ppm / HV activity at 100 ppm PUCCRT 3DC (disease control rating) / LV activity at 125.1 g/H PUCCRT 1DP (disease control rating) / LV activity at 125.1 g/H PUCCRT 3DC (disease control rating): A: > 80; B: ≤ 80; C: Not Tested; D: No Activity Observed in the Reported Assay; details: for PUCCRT 1DP disease control rating, HV activity at 100 ppm / PUCCRT 3DC disease control rating, HV activity at 100 ppm: high volume application; for PUCCRT 1DP disease control rating, HV activity at 100 ppm / PUCCRT 1DP disease control rating, LV activity at 125.1 g/H: 1 day protectant; for PUCCRT 3DC disease control rating, HV activity at 100 ppm / PUCCRT 3DC disease control rating, LV activity at 125.1 g/H: 3 day curative; for PUCCRT 1DP disease control rating, LV activity at 125.1 g/H / PUCCRT 3DC disease control rating, LV activity at 125.1 g/H: low volume application

SMILES	SEPTTR 1DP disease control rating, HV activity at 100 ppm (Zymoseptoria tritici)	SEPTTR 3DC disease control rating, HV activity at 100 ppm (Zymoseptoria tritici)	PUCCRT 1DP disease control rating, HV activity at 100 ppm (Puccinia triticina)	PUCCRT 3DC disease control rating, HV activity at 100 ppm (Puccinia triticina)	SEPTTR 1DP disease control rating, LV activity at 125.1 g/H (Zymoseptoria tritici)	SEPTTR 3DC disease control rating, LV activity at 125.1 g/H (Zymoseptoria tritici)	PUCCRT 1DP disease control rating, LV activity at 125.1 g/H (Puccinia triticina)	PUCCRT 3DC disease control rating, LV activity at 125.1 g/H (Puccinia triticina)
COc1ccnc(C(=O)NC(C)C(=O)OC(C)C(Oc2ccc(F)cc2)c2ccccc2)c1O (centres unmarked) [Cmpd 837]	A (> 80)	A (> 80)	A (> 80)	A (> 80)				
COc1ccnc(C(=O)N[C@@H](C)C(=O)O[C@@H](C)[C@H](Oc2cccc(F)c2)C2CCCC2)c1O [Cmpd 839]	B (≤ 80)	B (≤ 80)	A (> 80)	A (> 80)				
COc1ccnc(C(=O)N[C@@H](C)C(=O)O[C@@H](C)[C@H](Oc2ccc(F)cc2)C2CCCC2)c1O [Cmpd 840]	B (≤ 80)	A (> 80)	A (> 80)	A (> 80)				
COc1ccnc(C(=O)N[C@@H](C)C(=O)O[C@@H](C)[C@H](Oc2cccc(Cl)c2)C2CCCC2)c1O [Cmpd 841, (S)-(1R,2S)-1-(3-chlorophenoxy)-1-cyclopentylpropan-2-yl-2-(3-hydroxy-4-methoxypicolinamido)propanoate]	A (> 80)	A (> 80)	A (> 80)	A (> 80)				
COc1ccnc(C(=O)N[C@@H](C)C(=O)O[C@@H](C)[C@H](Oc2ccc(Cl)cc2)C2CCCC2)c1O [Cmpd 842]	A (> 80)	B (≤ 80)	A (> 80)	A (> 80)				
COc1ccnc(C(=O)N[C@@H](C)C(=O)O[C@@H](C)[C@H](Oc2ccc(C)cc2Cl)C2CCCC2)c1O [Cmpd 843, (S)-(1R,2S)-1-(2-chloro-4-methylphenoxy)-1-cyclopentylpropan-2-yl-2-(3-hydroxy-4-methoxypicolinamido)propanoate]	D	B (≤ 80)	D	D				
COc1ccnc(C(=O)N[C@@H](C)C(=O)O[C@@H](C)[C@H](OCC(C)C)C2CCCC2)c1O [Cmpd 844]	B (≤ 80)	A (> 80)	A (> 80)	A (> 80)				
COc1ccnc(C(=O)N[C@@H](C)C(=O)O[C@@H](C)[C@H](OCC2CC2)C2CCCC2)c1O [Cmpd 845, (S)-(1R,2S)-1-cyclopentyl-1-(cyclopropyl-methoxy)propan-2-yl-2-(3-hydroxy-4-methoxypicolinamido)propanoate]	B (≤ 80)	B (≤ 80)	A (> 80)	A (> 80)				
COc1ccnc(C(=O)N[C@@H](C)C(=O)O[C@@H](C)[C@H](Oc2ccc(C)cc2)C2CCCC2)c1O [Cmpd 846, (S)-(1R,2S)-1-cyclopentyl-1-(p-tolyloxy)propan-2-yl-2-(3-hydroxy-4-methoxypicolinamido)propanoate]	B (≤ 80)	B (≤ 80)	A (> 80)	A (> 80)				
COc1cccc(O[C@H](C2CCCC2)[C@H](C)OC(=O)[C@H](C)NC(=O)c2nccc(OC)c2O)c1 [Cmpd 847]	B (≤ 80)	A (> 80)	A (> 80)	A (> 80)				
COc1ccnc(C(=O)N[C@@H](C)C(=O)O[C@@H](C)[C@H](Oc2ccccc2)c2ccc(F)cc2)c1O [Cmpd 848]	B (≤ 80)	A (> 80)	A (> 80)	B (≤ 80)				
COc1ccnc(C(=O)N[C@@H](C)C(=O)O[C@@H](C)[C@@H](Oc2ccccc2)c2cccnc2)c1OC(C)=O [Cmpd 849]					D	B (≤ 80)	D	B (≤ 80)
CCCO[C@@H](C(C)C)[C@H](C)OC(=O)[C@H](C)NC(=O)c1nccc(OC)c1OCOC(C)=O [Cmpd 850]					D	B (≤ 80)	B (≤ 80)	A (> 80)
COc1ccnc(C(=O)N[C@@H](C)C(=O)O[C@@H](C)[C@@H](OC(=O)c2ccccc2)C(C)C)c1OCOC(C)=O [Cmpd 851]					D	D	B (≤ 80)	B (≤ 80)
COc1ccnc(C(=O)N[C@@H](C)C(=O)O[C@@H](C)[C@@H](Oc2cccc(Cl)c2)C(C)C)c1OCOC(C)=O [Cmpd 852]					B (≤ 80)	A (> 80)	A (> 80)	A (> 80)
COc1ccnc(C(=O)N[C@@H](C)C(=O)O[C@@H](C)[C@@H](Oc2cccc(C(F)(F)F)c2)C(C)C)c1OCOC(C)=O [Cmpd 853]					B (≤ 80)	A (> 80)	A (> 80)	A (> 80)
COc1ccnc(C(=O)N[C@@H](C)C(=O)O[C@@H](C)[C@@H](Oc2cccc3ccccc23)C(C)C)c1OCOC(C)=O [Cmpd 854]					B (≤ 80)	A (> 80)	A (> 80)	B (≤ 80)
CCCO[C@@H](C(C)C)[C@H](C)OC(=O)[C@H](C)NC(=O)c1nccc(OC)c1OC(C)=O [Cmpd 855]					D	D	B (≤ 80)	B (≤ 80)
COc1ccnc(C(=O)N[C@@H](C)C(=O)O[C@@H](C)[C@@H](OC(=O)c2ccccc2)C(C)C)c1OC(C)=O [Cmpd 856]					D	D	B (≤ 80)	B (≤ 80)
COc1ccnc(C(=O)NC(C)C(=O)OC(C)C(Oc2cccc(Cl)c2)C(C)C)c1OC(C)=O (centres unmarked) [Cmpd 857]					B (≤ 80)	B (≤ 80)	A (> 80)	A (> 80)
COc1ccnc(C(=O)NC(C)C(=O)OC(C)C(Oc2cccc(C(F)(F)F)c2)C(C)C)c1OC(C)=O (centres unmarked) [Cmpd 858]					B (≤ 80)	A (> 80)	A (> 80)	A (> 80)
COc1ccnc(C(=O)NC(C)C(=O)OC(C)C(Oc2cccc3ccccc23)C(C)C)c1OC(C)=O (centres unmarked) [Cmpd 859]					B (≤ 80)	D	A (> 80)	B (≤ 80)
COc1ccnc(C(=O)NCC(=O)OC(C)C(Oc2ccccc2)C(C)C)c1OCOC(C)=O (centres unmarked) [Cmpd 862]					D	D	A (> 80)	A (> 80)
